Reference: paper PMC12472303 (2025)

Experiments:
[1] = system: poly dAdT-poly dAdT (DNA, polymer) AT; experiment: UV thermal melting at 260 nm; conditions: Na+ (sodium cacodylate, I = 0.05 M), pH 7.0, polynucleotide 20 µM nucleotide, r [compound]/[polynucleotide] = 0.3, error ±0.5 °C, per base
[2] = system: poly rA-poly rU (RNA, polymer) A/U; experiment: UV thermal melting at 260 nm; conditions: Na+ (sodium cacodylate, I = 0.05 M), pH 7.0, polynucleotide 20 µM nucleotide, r [compound]/[polynucleotide] = 0.3, error ±0.5 °C, per base
[3] = system: Tel22 (DNA, G4) AGGGTTAGGGTTAGGGTTAGGG; experiment: fluorimetric titration, SPECFIT; conditions: Na+ (sodium cacodylate, I = 0.1 M), pH 7.0, <0.1% DMSO
[4] = system: poly dAdT-poly dAdT (DNA, polymer) AT; experiment: fluorimetric titration, Scatchard; conditions: Na+ (sodium cacodylate, I = 0.05 M), pH 7.0, per phosphate (nucleotide), n fixed at 0.2, <0.1% DMSO, per base
[5] = system: poly dGdC-poly dGdC (DNA, polymer) GC; experiment: fluorimetric titration, Scatchard; conditions: Na+ (sodium cacodylate, I = 0.05 M), pH 7.0, per phosphate (nucleotide), n fixed at 0.2, <0.1% DMSO, per base
[6] = system: Tel22 (DNA, G4) AGGGTTAGGGTTAGGGTTAGGG; experiment: UV thermal melting at 260 nm; conditions: Na+ (sodium cacodylate, I = 0.1 M), pH 7.0, Tel22 1–2 µM, r [compound]/[Tel22] = 4
[7] = Na-cacodylate buffer, concentration as oligonucleotide

Row | ΔTm [1] | ΔTm [2] | log K1 [3, 7] [log K] | log Ks [4] [log Ks] | log Ks [5] [log Ks] | log K1 ([3]; Na-cacodylate, second step LG + G = LG2 log K2 5.07 ± 0.26) [log K] | binding [6] | Structure (SMILES)
1 | 0 °C | −1.0 °C | 5.78 ± 0.08 | – | – | – | – | N=C(N)Nc1ccc2c(c1)Cc1ccccc1-2
2 | 0 °C | +0.9 °C | 5.26 ± 0.13 | – | – | – | – | N=C(N)Nc1ccc2c3c(cccc13)-c1ccccc1-2

More lines, now with the values behind:

Row | Structure (SMILES) | ΔTm [1] | ΔTm [2] | log K1 [3, 7] [log K] | log Ks [4] [log Ks] | log Ks [5] [log Ks] | log K1 ([3]; Na-cacodylate, second step LG + G = LG2 log K2 5.07 ± 0.26) [log K] | binding [6]
3 | NC(N)=Nc1cc2ccccc2c2ccccc12 | +0.9 °C | +1.3 °C | 5.61 ± 0.02 | 6.27 | 5.34 | – | –
4 | N=C(N)Nc1ccc(-c2c3nc(c(-c4ccccc4)c4ccc([nH]4)c(-c4ccccc4)c4nc(c(-c5ccccc5)c5ccc2[nH]5)C=C4)C=C3)cc1 | – | – | – | – | – | 7.23 ± 0.49 | –
5 | N=C(N)Nc1ccc2ccccc2c1 | 0 °C | 0 °C | 5.36 ± 0.07 | 4.17 | – | – | weak
